Test results as given in US20100041694A1, “AGRICULTURAL COMPOSITION FOR CONTROLLING OR PREVENTING PLANT DISEASES CAUSED BY PLANT PATHOGENIC MICROBES” (Sumitomo Chemical Company, Limited, priority 2007, published 2010).

Experiments:
[1] = system: Plasmopara viticola; experiment: Treating grape downy mildew, foliage application; assay type: in vivo; conditions: grape (Berry-A), infected nursery plants, flowable formulation 500 ppm foliage application after inoculation (curative)
Method: Test Regarding Effects of Treating Grape Downy Mildew (Plasmopara viticola)
A plastic pot was filled with sandy soil, and grape (variety: Berry-A) was then disseminated. The grape plants were allowed to grow in a green house for 40 days. A water suspension of zoosporangium of Plasmopara viticola was inoculated to the aforementioned pot by spaying it. Thereafter, the grape plants were left at 23° C. at a high humidity for 1 day, and they were then air-dried, so as to obtain grape downy mildew-infected nursery plants. The aforementioned flowable formulation comprising compound 189 was set at a predetermine concentration (500 ppm) by diluting with water, and it was then subjected to foliage application such that it could be sufficiently attached to the leaves of the aforementioned nursery grape plants. After completion of the foliage application, the plants were subjected to air-drying, and they were then left at 23° C. in a green house for 5 days. Thereafter, the plants were further left at 23° C. at a high humidity for 1 day. Thereafter, the infected areas thereof were examined.

[2] = system: Magnaporthe grisea; assay type: in vivo; conditions: rice (Nihonbare), flowable formulation 500 ppm foliage application; five days after the inoculation

Compound | infected areas of treated plants relative to infected areas of untreated plants [1] | infected areas of treated plants relative to infected areas of untreated plants [2]
Cc1ccc(CNC(=O)c2ccc3ncsc3c2)cc1 [Compound 189] | ≤ 10% | 
O=C(NCc1ccc(OC(F)F)cc1)c1ccc2ncccc2c1 [Compound 56] |  | ≤ 30%
